# Measurements published in the METLIN SMRT retention time set (Domingo-Almenara et al. 2019).
# Assay: gradient 5% acetonitrile 3 min, to 50% in 2 min, to 85% in 15 min, held 3 min, 100 µL/min
# Conditions: column: Zorbax Extend-C18 2.1 x 50 mm; eluents: water / acetonitrile, 0.1% formic acid
# Procedure, shortened: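 Using water and acetonitrile that each contained 0.1% formic acid, mixtures of ~100 pure standards were separated at 100 μL/min on a Zorbax Extend-C18 column (2.1 × 50 mm, 1.8 μm). The HPLC fed a quadrupole time-of-flight mass spectrometer working in positive and negative ionization mode, with dead and dwell volumes of 40 μL and 900 μL. Data were acquired over 3 months. Retention time was read from computationally picked adduct peaks after manual inspection of each.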
row,RP-LC retention time [s],SMILES
1,636,O=C(COc1ccccc1)N1CCN(c2nc(CN3CCCCC3)cs2)CC1
2,702,COc1cccc(CN2CCC(Oc3ccccc3-c3nc(-c4cnccn4)no3)C2)n1 (stereo not given)
3,852,COC(=O)c1ccc(C(=O)OC)c(NC(=O)CSc2nc(C)cc(C)n2)c1
4,716,Cc1ccc(CC(=O)Nc2c(C(=O)N3CCN(c4ccccn4)CC3)oc3ccccc23)cc1
5,601,Cc1nn(C(C)C(=O)NCCN(C)C)c(=O)c2nn(-c3ccccc3)c(C)c12 (stereo not given)
6,806,O=S(=O)(CCOc1ccccc1)NCc1ccc2c(c1)OCO2
7,644,COCCNC(=O)C1CCCN(C(=O)c2[nH]c(C)cc2C)C1 (stereo not given)
8,1020,COC(=O)c1ccc(NC(=O)Cn2c(C)nc3c(sc4nc(-c5ccccc5)ccc43)c2=O)cc1
9,591,CCOCCCNC(=O)N1CCCC(c2nn[nH]n2)C1 (stereo not given)
10,694,Cc1ccc(CNC(=O)Cn2c(C(C)C)nc3c(c2=O)CN(Cc2ccccc2)CC3)cc1
11,594,COc1ccc(S(=O)(=O)N2CCN=C2SCc2cccnc2)cc1
12,675,O=c1n(CC2CO2)c(=O)n(CC2CO2)c(=O)n1CC1CO1 (stereo not given)
13,634,CCN1CCN(CCCNc2ccc(-c3nc(-c4cccc(F)c4)no3)cn2)CC1
14,885,O=C(Nc1ccc(OCc2nnc(-c3ccccc3)o2)cc1)C1CCCC1
15,991,COc1ccc(-c2ncc3c(n2)CCN(S(=O)(=O)c2ccc(OC)cc2)C3)cc1
16,792,Cc1ccc(C(=O)N2CCC3(C2)C(=O)N(C)c2ccccc23)cc1 (stereo not given)
17,572,O=C(c1cncnc1)N1CCCn2ccnc2C1C1CCCC1 (stereo not given)
18,603,O=C(c1n[nH]c2ccccc12)N1CCCn2nc(-c3ccncc3)cc2C1
19,951,COc1ccc(Cl)cc1Nc1ccnc2c1c(=O)n(C)c(=O)n2C
20,656,Fc1ccc(-c2noc(CCc3nnc4ccc(N5CCN(Cc6ccccc6)CC5)nn34)n2)cc1
21,805,O=C(NC1CC1)c1ccccc1OCC1CCN(C(=O)c2ccc(F)cc2)CC1
22,1310,Cc1ccc(-c2noc(C3CCCN3S(=O)(=O)c3ccc(C(C)C)cc3)n2)cc1 (stereo not given)

row,RP-LC retention time [s],SMILES
1,644,CNCc1ccc(-c2ccc(F)c(Cl)c2)o1
2,885,Cc1ccc(-c2nc3sc(N4CCCCC4)nn3c2NC(=O)C2CC2)cc1
3,640,CCN(CC)c1ccc(NC(=O)C2C(=O)NC3(C)CC2c2ccccc2O3)c(C)c1 (stereo not given)
4,617,CCOc1ccccc1NC(=O)N1CCN(CCn2c(C(C)C)nc3cccnc32)CC1
5,728,O=C(Nc1nccs1)C1CCN(C(=O)c2cccc(C(F)(F)F)c2)CC1
6,825,CCOC(=O)C1CCCN(C(=O)C2CCN(S(=O)(=O)c3ccc4c(c3)sc(=O)n4C)CC2)C1 (stereo not given)
7,905,COc1ccc(-c2ncc3c(n2)CCN(C(=O)Nc2ccccc2OC)C3)cc1
8,819,Cc1ccc(C2Cn3cnc(C(=O)N4CCC(C(=O)NCCC5=CCCCC5)CC4)c3CO2)cc1 (stereo not given)
9,1000,CCOC(=O)Cc1c(C)nc2c(-c3ccccc3)cnn2c1C
10,958,CC1(C(=O)NCc2ccccc2)CCCN(C(=O)Nc2ccccc2C(F)(F)F)C1 (stereo not given)
11,940,COc1cccc(NC(=O)C2CCN(S(=O)(=O)c3c(C)nn(-c4ccccc4)c3C)CC2)c1
12,820,O=C(NC1CCCCCC1)C1CCN(S(=O)(=O)c2cc(C(=O)N3CCCC3)cs2)CC1
13,726,Cc1ccccc1NC(=O)C1CCCN(S(=O)(=O)c2cn(C(C)C)cn2)C1 (stereo not given)
14,879,Cc1ccc(N2C(=O)N(CC(=O)N3CCC(C)CC3)C3CS(=O)(=O)CC32)cc1Cl (stereo not given)
15,808,CCOc1ccc(-c2nc3ncccn3c2NC2CCCCC2)cc1
16,650,Cc1cnc(CC2CCN(S(=O)(=O)c3ccccc3)C2)n1C(C)C (stereo not given)
17,814,Cn1c(N2CCC(C(=O)N3CCN(c4cccc(C(F)(F)F)c4)CC3)CC2)cc(=O)n(C)c1=O
18,1200,Cc1cc(F)ccc1NS(=O)(=O)c1c(C)sc(C)c1-c1cc(C(F)(F)F)on1
19,861,CCOc1ccccc1NC(=O)CSc1nccc(N2CCN(c3cc(C)ccc3C)CC2)n1
20,680,O=C(c1c(F)cccc1Cl)N1CCN(c2ccc3nnc(-c4ccco4)n3n2)CC1
21,740,Cc1oc2c(c1C(=O)N(C)C)CN(S(=O)(=O)Cc1ccccc1)CC2
22,704,CCc1cccc(NC(=O)N2CCN(c3cc(C)nc(N4CCCC4)n3)CC2)c1

row,RP-LC retention time [s],SMILES
1,672,COc1ccccc1C(=O)N1CCC2(C1)C(=O)Nc1ccccc12 (stereo not given)
2,823,CC(C)c1ccc(CNC(=O)c2ccc3c(c2)nc2n3CCN(C(C)C)C2=O)cc1
3,1030,Cc1c(C(=O)N2CCCC2)cnn1-c1cc(-c2nc(C(C)(C)C)no2)ccn1
4,726,c1ccc(OCCC2CCN(Cc3ccc4[nH]ccc4c3)C2)cc1 (stereo not given)
5,1020,COc1cccc(-c2nc(-c3cccc(-c4ccnn4C)c3)no2)c1OC
6,597,CN1CCC(NC(=O)c2n[nH]c3c2CN(C(=O)c2cc(F)cc(F)c2)CC3)CC1
7,910,CCOC(=O)c1cccc(NC(=O)Cn2ccc3ccc(-c4nnc(CC)o4)cc32)c1
8,688,O=C(C1CC1)N1CCCN(c2ccc([N+](=O)[O-])cc2)CC1
9,656,Cc1ccc(NC(=O)Cn2cnc3nc(-c4cccnc4)ncc3c2=O)cc1F
10,1080,CC(C)Cc1nc(-c2ccccc2)oc1CC(=O)NCc1ccc(F)c(Cl)c1
11,627,CC(C)NC(=O)c1cc2nc(N(C)C)n(-c3ccc(F)cc3)c2s1
12,1160,CC(C)n1cnc2c(NCCc3ccc(O)cc3)nc(-c3csc4ccccc34)nc21
13,946,O=C(CSc1nnnn1-c1ccccc1)Nc1ncc(Cc2ccccc2Cl)s1
14,683,COc1ccc(Br)cc1C1C(C(=O)N2CCOCC2)=C(C)NC2=C1C(=O)CC(C)(C)C2 (stereo not given)
15,1020,COc1ccccc1Cc1nc(C2CC(=O)N(c3ccc(F)c(Cl)c3)C2)no1 (stereo not given)
16,897,CCOC(=O)c1c(S(=O)(=O)N2CCC(C(=O)Nc3ccc(F)cc3)CC2)c(C)n(CC)c1C
17,668,Cc1ccc(CNC(=O)c2cc3c(=O)n(C)ccc3n2C)o1
18,814,COCCN1C(=O)c2ccccc2C(C(=O)Nc2ccc3[nH]ccc3c2)C12CCCC2 (stereo not given)
19,598,Cc1nn(C)c(C)c1S(=O)(=O)N1CCC(Cc2nc(-c3cccnc3)n[nH]2)C1 (stereo not given)
20,699,CCN1CCN(c2cc(C)c3cc(NC(=S)N4CCC(Cc5ccccc5)CC4)ccc3n2)CC1
21,622,O=C(NC1CCCCC1)C1CCCN(C(=O)c2cc(-c3cccnc3)n[nH]2)C1 (stereo not given)
